Measurements as given in patent publication US11534457B2, “Use of dextran sulfate” (priority 2017, dated 2022).

Tests used:
[1] = test system: closed-head diffuse severe TBI (sTBI); test: sTBI in rats, dose study, HPLC of free amino acids and amino group containing compounds (Example 7); format: in vivo, Male Wistar rats
[2] = molecular target: protein-protein interaction between oligomeric amyloid-β and PrP^c (Homo sapiens, UniProt P04156); format: binding
[3] = test system: trabecular meshwork (TM) scarring in glaucomatous eyes; test: TGF-β induced glaucoma in rats, trabecular meshwork scarring (laminin, fibronectin immunohistochemistry); format: in vivo, Sprague Dawley rats
Description: Glaucoma was induced in adult male Sprague Dawley rats by repeat twice weekly intracameral (IC) injections of transforming growth factor-β (TGF-β) to increase intraocular pressure (IOP). Sustained increases in IOP (after two weeks) leads to death of retinal ganglion cells (30-40%). LMW-DS was administered at 15 mg/kg by daily subcutaneous injection […] to assess RGC protection compared to controls.
Group 1 n=12 rats; 24 eyes […] TGF-β (twice weekly for 28 days) between day 0 and day 28+ daily subcutaneous administration of dextran sulfate from day 14 to day 28.
Group 2 n=8 rats; 16 eyes IOP+IC TGF-β (twice weekly for 28 days) between day 0 and day 28+ daily subcutaneous administration of vehicle (saline) from day 14 to day 28.
Measured End-Points • IOP twice weekly throughout study from day 0 to day 28; • Immunohistochemistry for counting retinal ganglion cell (RGC) that are immunoreactive for brain-specific homeobox/POU domain protein 3A (Brn3a) at day 28 (RGC survival); • Immunohistochemistry for laminin and fibronectin to evaluate scarring in the trabecular meshwork at day 28 in Groups 1 and 2; • Anterior segment and optical coherence tomography (OCT) imaging at day 28 to examine the angle and the thickness of the retinal nerve fiber layer comprising RGC axons; and • Body weight at day 28. […]

[4] = 1 mg/kg s.c. single, 30 min post-sTBI, sacrifice 2 days
[5] = 5 mg/kg s.c. single, 30 min post-sTBI, sacrifice 2 days
[6] = 15 mg/kg s.c. single, 30 min post-sTBI, sacrifice 2 days
[7] = rats, 7 days post-sTBI, repeated administration of 15 mg/kg b.w.
[8] = rats, 7 days post-sTBI, single administration of 1 mg/kg b.w.
[9] = rats, 7 days post-sTBI, single administration of 5 mg/kg b.w.
[10] = rats, 7 days post-sTBI, single administration of 15 mg/kg b.w.

Q: Which results are given for “low molecular weight dextran sulfate [LMW-DS]”?
A: GLN, brain concentration [1, 4]: 4.37 ± 0.59 nmol/g w.w.; LYS, brain concentration [1, 4]: 0.29 ± 0.11 nmol/g w.w.; ORN, brain concentration [1, 4]: 0.02 ± 0.01 nmol/g w.w.; THR, brain concentration [1, 4]: 0.70 ± 0.15 nmol/g w.w.; VAL, brain concentration [1, 4]: 0.07 ± 0.03 nmol/g w.w.; ORN, brain concentration [1, 5]: 0.01 ± 0.01 nmol/g w.w.; THR, brain concentration [1, 5]: 0.77 ± 0.17 nmol/g w.w.; VAL, brain concentration [1, 5]: 0.08 ± 0.03 nmol/g w.w.; GLN, brain concentration [1, 6]: 4.21 ± 0.51 nmol/g w.w.; LEU, brain concentration [1, 6]: 0.04 ± 0.01 nmol/g w.w.; ORN, brain concentration [1, 6]: 0.02 ± 0.01 nmol/g w.w.; VAL, brain concentration [1, 6]: 0.06 ± 0.03 nmol/g w.w.; isoleucine (ILE) ([1]; 2 days post sTBI): restored; osmolyte and aromatic free amino acids ([1]; 2 days post sTBI): No remarkable effects; free amino acids involved in NO generation (ARG, CITR) ([1]; 2 days post sTBI, 15 mg/kg b.w.): particularly effective; free amino acids involved in neurotransmission ([1]; 2 days post sTBI, 5 or 15 mg/kg b.w.): partly effective; methionine ([1]; 2 days post sTBI, any dose tested): Restoration; TAU concentrations ([1]; 7 days post sTBI): normalized; aromatic amino acids ([1]; 7 days post sTBI): caused the increase; GLU ([1]; 7 days post sTBI, 15 mg/kg b.w. single or repeat): normalization; free amino acids involved in NO generation (ARG, CITR) ([1]; 7 days post sTBI, 5 or 15 mg/kg b.w. (single and repeat)): particularly effective; L-Cystathionine (L-Cystat) ([1]; 7 days post sTBI, highest dose): significant increase; MET ([1]; 7 days post sTBI, highest dose, single or repeat): Increase; ALA concentration in deproteinized brain homogenates [1, 7]: 0.47 ± 0.05 nmol/g w.w.; ASN concentration in deproteinized brain homogenates [1, 7]: 0.10 ± 0.02 nmol/g w.w.; CITR concentration in deproteinized brain homogenates [1, 7]: 0.03 ± 0.01 nmol/g w.w.; GLN concentration in deproteinized brain homogenates [1, 7]: 3.88 ± 0.4 µmol/g w.w.; HYS concentration in deproteinized brain homogenates [1, 7]: 0.06 ± 0.01 nmol/g w.w.; ILE concentration in deproteinized brain homogenates [1, 7]: 0.03 ± 0.01 nmoL/g w.w.; LEU concentration in deproteinized brain homogenates [1, 7]: 0.04 ± 0.01 nmoL/g w.w.; LYS concentration in deproteinized brain homogenates [1, 7]: 0.23 ± 0.07 nmoL/g w.w.; MET concentration in deproteinized brain homogenates [1, 7]: 0.05 ± 0.01 nmol/g w.w.; THR concentration in deproteinized brain homogenates [1, 7]: 0.77 ± 0.14 nmol/g w.w.; TYR concentration in deproteinized brain homogenates [1, 7]: 0.14 ± 0.02 nmol/g w.w.; VAL concentration in deproteinized brain homogenates [1, 7]: 0.07 ± 0.01 nmoL/g w.w.; ASN concentration in deproteinized brain homogenates [1, 8]: 0.10 ± 0.02 nmol/g w.w.; CITR concentration in deproteinized brain homogenates [1, 8]: 0.03 ± 0.01 nmol/g w.w.; GLN concentration in deproteinized brain homogenates [1, 8]: 4.1 ± 0.42 µmol/g w.w.; HYS concentration in deproteinized brain homogenates [1, 8]: 0.06 ± 0.01 nmol/g w.w.; LYS concentration in deproteinized brain homogenates [1, 8]: 0.19 ± 0.06 nmoL/g w.w.; MET concentration in deproteinized brain homogenates [1, 8]: 0.03 ± 0.01 nmol/g w.w.; TAU concentration in deproteinized brain homogenates [1, 8]: 4.02 ± 0.51 nmol/g w.w.; THR concentration in deproteinized brain homogenates [1, 8]: 0.71 ± 0.12 nmol/g w.w.; TYR concentration in deproteinized brain homogenates [1, 8]: 0.13 ± 0.02 nmol/g w.w.; ASN concentration in deproteinized brain homogenates [1, 9]: 0.10 ± 0.02 nmol/g w.w.; CITR concentration in deproteinized brain homogenates [1, 9]: 0.03 ± 0.01 nmol/g w.w.; GLN concentration in deproteinized brain homogenates [1, 9]: 3.86 ± 0.4 µmol/g w.w.; GLY concentration in deproteinized brain homogenates [1, 9]: 0.88 ± 0.15 nmol/g w.w.; HYS concentration in deproteinized brain homogenates [1, 9]: 0.06 ± 0.01 nmol/g w.w.; LYS concentration in deproteinized brain homogenates [1, 9]: 0.21 ± 0.04 nmoL/g w.w.; MET concentration in deproteinized brain homogenates [1, 9]: 0.04 ± 0.01 nmol/g w.w.; THR concentration in deproteinized brain homogenates [1, 9]: 0.71 ± 0.15 nmol/g w.w.; TRP concentration in deproteinized brain homogenates [1, 9]: 0.02 ± 0.01 nmol/g w.w.; TYR concentration in deproteinized brain homogenates [1, 9]: 0.13 ± 0.02 nmol/g w.w.; ASN concentration in deproteinized brain homogenates [1, 10]: 0.10 ± 0.02 nmol/g w.w.; CITR concentration in deproteinized brain homogenates [1, 10]: 0.03 ± 0.01 nmol/g w.w.; GLN concentration in deproteinized brain homogenates [1, 10]: 3.73 ± 0.38 µmol/g w.w.; HYS concentration in deproteinized brain homogenates [1, 10]: 0.06 ± 0.01 nmol/g w.w.; LYS concentration in deproteinized brain homogenates [1, 10]: 0.21 ±0.05 nmoL/g w.w.; MET concentration in deproteinized brain homogenates [1, 10]: 0.04 ± 0.01 nmol/g w.w.; THR concentration in deproteinized brain homogenates [1, 10]: 0.72 ± 0.14 nmol/g w.w.; TYR concentration in deproteinized brain homogenates [1, 10]: 0.14 ± 0.02 nmol/g w.w.; Competable binding (%) [2]: 85 ± 4%; Hill coefficient [2]: 1.00 ± 0.21; IC50 [2]: 0.42 ± 0.16 µg/mL; competition for the protein-protein interaction (in words) [2]: in a concentration dependent manner as did LMW-DS; immunoreactive laminin in the angle (TM scarring) vs saline ([3]; 15 mg/kg daily s.c. day 14 to day 28, P<0.001): significantly reduced; immunoreactive fibronectin in the angle (TM scarring) vs saline ([3]; 15 mg/kg daily s.c. day 14 to day 28, P<0.01): significantly reduced
